Reference: patent US20100311643A1, “USE OF GLP-1 AS A THERAPEUTIC AGENT” (priority 2007, published 2010)

Tested on: drug-resistant Mycobacterium tuberculosis
Details: drug-resistant Mycobacterium tuberculosis growth; peptide 10 micrograms per ml; seven days

SMILES: CC[C@H](C)[C@H](NC(=O)[C@H](Cc1ccccc1)NC(=O)[C@H](CCC(=O)O)NC(=O)[C@H](CCCCN)NC(=O)[C@H](C)NC(=O)[C@H](C)NC(=O)[C@H](CCC(N)=O)NC(=O)CNC(=O)[C@H](CCC(=O)O)NC(=O)[C@H](CC(C)C)NC(=O)[C@H](Cc1ccc(O)cc1)NC(=O)[C@H](CO)NC(=O)[C@H](CO)NC(=O)[C@@H](NC(=O)[C@H](CC(=O)O)NC(=O)[C@H](CO)NC(=O)[C@@H](NC(=O)[C@H](Cc1ccccc1)NC(=O)[C@@H](NC(=O)CNC(=O)[C@H](CCC(=O)O)NC(=O)[C@H](C)NC(=O)[C@H](Cc1c[nH]cn1)NC(=O)[C@H](CCCNC(=N)N)NC(=O)[C@H](CCC(=O)O)NC(=O)[C@H](Cc1ccccc1)NC(=O)[C@H](CCC(=O)O)NC(=O)[C@H](CC(=O)O)NC(=O)[C@@H](N)Cc1c[nH]cn1)[C@@H](C)O)[C@@H](C)O)C(C)C)C(=O)N[C@@H](C)C(=O)N[C@@H](Cc1c[nH]c2ccccc12)C(=O)N[C@@H](CC(C)C)C(=O)N[C@H](C(=O)N[C@@H](CCCCN)C(=O)NCC(=O)N[C@@H](CCCNC(=N)N)C(=O)NCC(=O)O)C(C)C [GLP-1]
- % inhibition: 0.0%
